Legend:
Assay type in all cases: cell-based, human
[1] = system: MCP-1 gene expression in HMVECs; assay: cDNA microarray analysis of gene expression in stimulated HMVECs; conditions: four hours; for MCP-1 gene expression in response to stimulus (microarray): thrombin 100 nM or TNF-α 20 ng/ml
Procedure: In an effort to rapidly assess the potential overall role of SK1 in endothelial cell function, a cDNA microarray analyses was performed in HMVEC in the absence and presence of the SK1 inhibitor DMS. The cells were stimulated through two receptor subtypes: G-protein coupled receptors, for which the Protease Activate Receptor (PAR) family was utilized with thrombin as the agonist and cytokine receptors with TNF-α as the agonist
Cell Culture—Adult human microvascular endothelial cells (HMVECs) (Cambrex) were cultured in EGM complete media (Cambrex). Cells were used between the third and sixth passages for all studies.
Microarray Study—Adult human microvascular endothelial cells (HMVECs) (Cambrex) were placed into culture (5% FBS) and stimulated with thrombin (100 nM) or TNF-α (20 ng/ml) in the absence or presence of DMS (10 μM), a potent inhibitor of sphingosine kinase. After four hours of stimulation, RNA was isolated (Tri-Reagent, Bio-Mol), DNAse treated and cleaned using the RNeasy maxi kit (Qiagen). Upon validation of RNA purity using the Agilent 2100 Bioanalyzer, RNA was then subjected to cDNA microarray analyses.
A cDNA microarray containing 3563 cDNA clones was used in this study. In the gene expression studies two types of replications were used, biological and technical. Duplicate biological samples were harvested for each experimental condition for the initial microarray analyses. Additionally technical replication was employed as all samples were run in triplicate on separate microarrays. The microarray data from each sample were subjected to outlier removal based on technical replication and normalization based on both the technical and biological replication. The normalization consisted of an initial normalization between hybridization replicates within a single sample, followed by a secondary normalization across all samples within the study (Shaw et al., J Mol Microbiol Biotechnol, 2003, 5:105-122). […] After cleanup and subsequent normalizations, a single ratio was calculated for each treatment to its assigned control. […]

[2] = system: MCP-1 protein secretion from HMVECs; assay: MCP-1 ELISA of HMVEC supernatant; conditions: 24 hours; for effect of inhibitor pretreatment on induced MCP-1 protein secretion: DMS 10 μM, Bay11-7092 10 μM, GF109203x 1 μM, PD98059 10 μM, stimulation with Thrombin 100 nM, PAR-1-AP 100 nM or (Thrombin 0.1 ng/ml); for MCP-1 protein secretion in response to stimulus (ELISA): thrombin 100 nM or varying concentrations of PAR-activating peptides
Procedure: HMVECs were placed into culture and stimulated with Thrombin (100 nM) or varying concentrations of PAR-activating peptides. 24 hours later, we used ELISA to detect secretion of MCP-1 into supernatant.
MCP-1 ELISA—HMVECs were placed into culture in 96-well dishes (2×10^3 cells/well) and grown for 24 hours in complete growth media. Cells were transfected with control non-silencing siRNA or siRNAs for hSK1 or hSK2 in serum-free Opti-MEM (Gibco) for 4 hours. Cells were then allowed to grow for 24 hours in media containing 10% FBS, after which the cells were serum starved in 0.5% FBS media overnight. Cells were subsequently stimulated with fresh 0.5% FBS containing media and incubated under various experimental conditions for an additional 24 hours. Where indicated, cells were pre-incubated with specific compound inhibitors, for 20 minutes, prior to stimulation. Supernatants were collected and analyzed by ELISA (Cell Sciences).
HMVECs were transfected with siRNAs (1.6 μg), hSK1-specific, hSK2-specific or control non-silencing siRNAs. After 48 hours, cells were stimulated with Thrombin (100 nM), PAR-1-AP (300 μM) or PAR-4-AP (600 μM). ELISA was performed to detect MCP-1 secretion into cell supernatant. […] Furthermore, basal levels of MCP-1 protein secretion appeared to be effected as well, as the level of MCP-1 protein secretion in cells that were unstimulated or stimulated with PAR-4-AP was decreased from cells transfected with hSK1 specific siRNA.
HMVECs were placed into culture overnight, and pretreated with inhibitors to hSK (DMS 10 μM), NF-κB (Bay11-7092 10 μM), PKC (GF109203x 1 μM), or Erk (PD98059 10 μM) prior to stimulation with Thrombin (100 nM), PAR-1-AP (TFLLRN 100 nM), or (Thrombin 0.1 ng/ml). ELISAs were performed 24 hours after stimulation to measure the amount of MCP-1 secretion. […] Furthermore we observed that NF-κB activity is a prerequisite for MCP-1 expression as well, as pretreatment with the NF-κB inhibitor, Bay11-7092, abrogated the induction of MCP-1 protein secretion by all agonists.
HMVECs were placed into culture overnight, and pretreated with inhibitors to hSK (DMS 10 μM), NF-κB (Bay11-7092 10 μM), PKC (GF109203×1 μM), or Erk (PD98059 10 μM) prior to stimulation with 5 μM S1P. ELISAs were performed to detect the levels of secreted MCP-1 protein. […] There was no elevation of MCP-1 protein by the external addition of S1P. Therefore, we rule out a role for S1P receptors in the hSK-dependent release of MCP-1 from HMVECs.

[3] = system: MCP-1 transcripts in HMVECs; assay: Quantitative RT-PCR of MCP-1 transcripts in stimulated HMVECs; conditions: thrombin 100 nM
Excerpt: In the presence of hSK1-specific siRNAs, induction of MCP-1 was inhibited whereas in the presence of hSK2-specific or control non-silencing siRNAs, MCP-1 induction was not affected.
Evaluation of siRNA Transfection Efficiency and Silencing Capabilities—Small interfering RNAs (siRNAs) were designed and synthesized to target either sequences for hSK1, SEQ ID NO: 1 ([…]) or hSK2, SEQ ID NO:2 ([…]) transcripts as well as control non-silencing siRNA, SEQ ID NO:3 ([…]), which has no sequence target in the human genome (Qiagen). The oligonucleotides were fluorescein-conjugated on the 3′ end of the sense strand, which facilitated visualization of transfection efficiency by fluorescence confocal microscopy (LSM 510, Zeiss). […] For experimental studies RNA were isolated, DNAse treated and subjected to quantitative RT-PCR analyses to detect transcript levels of hSK1, hSK2, MCP-1 and control 18S transcripts using predesigned primers from Applied Biosystems. […]
Quantitative RT-PCR—HMVECs were placed into culture overnight and stimulated with thrombin (100 nM) after which RNA was isolated and DNAse treated. TaqMan® quantitative RT-PCRs were performed in triplicate as validation of microarray analyses according to manufacturers instructions (Applied Biosystems). The quantity mean for each detector was normalized to that of the 18S detector.

CCCCCCCCCCCCC/C=C/[C@@H](O)[C@H](CO)N(C)C [DMS, dimethylsphingosine]
effect on thrombin- and TNF-α-induced MCP-1 gene expression (microarray) ([1]; DMS 10 μM added prior to stimulation with thrombin 100 nM or TNF-α 20 ng/ml): inhibited
effect on thrombin- or PAR-1 agonist peptide-stimulated secretion of MCP-1 protein ([2]; HMVECs pretreated with DMS prior to stimulation): inhibited secretion of MCP-1 protein
effect of inhibitor pretreatment on induced MCP-1 protein secretion ([2]; HMVECs): hSK activity is required

CN(C)CCCn1cc(C2=C(c3c[nH]c4ccccc34)C(=O)NC2=O)c2ccccc21 [GF109203x]
effect of inhibitor pretreatment on induced MCP-1 protein secretion ([2]; HMVECs): intermediate effect

COc1cccc(-c2cc(=O)c3ccccc3o2)c1N [PD98059]
effect of inhibitor pretreatment on induced MCP-1 protein secretion ([2]; HMVECs): no effect

CCCCCCCCCCCCC/C=C/[C@@H](O)[C@@H](N)COP(=O)(O)O [S1P, Sphingosine-1-phosphate]
MCP-1 protein secretion after external addition of S1P ([2]; HMVECs, 5 μM S1P): no elevation

TFLLRN [PAR-1-AP]
MCP-1 protein secretion in response to stimulus (ELISA) ([2]; HMVECs): stimulated secretion of MCP-1

TNF-α
MCP-1 gene expression in response to stimulus (microarray) [1]: induced

thrombin
MCP-1 gene expression in response to stimulus (microarray) [1]: induced
MCP-1 transcripts in response to stimulus (quantitative RT-PCR) [3]: induction of MCP-1 transcripts
MCP-1 protein secretion in response to stimulus (ELISA) ([2]; HMVECs): augmented

From patent US20060116343A1, “Sphingosine kinase-1 mediates gene expression regulation of a monocyte chemoattractant protein-1 gene” (priority 2004, published 2006)
